Results from publication PMC10600165 (Nature Communications, 2023).

Target: HK68 (human A/H3N2 HA) (Influenza A virus (A/Hong Kong/1/1968(H3N2)), UniProt Q91MA7)
Type: binding

Sequence of HK68 (human A/H3N2 HA) (Influenza A virus (A/Hong Kong/1/1968(H3N2)), UniProt Q91MA7) (Q91MA7 17-530 limits assumed): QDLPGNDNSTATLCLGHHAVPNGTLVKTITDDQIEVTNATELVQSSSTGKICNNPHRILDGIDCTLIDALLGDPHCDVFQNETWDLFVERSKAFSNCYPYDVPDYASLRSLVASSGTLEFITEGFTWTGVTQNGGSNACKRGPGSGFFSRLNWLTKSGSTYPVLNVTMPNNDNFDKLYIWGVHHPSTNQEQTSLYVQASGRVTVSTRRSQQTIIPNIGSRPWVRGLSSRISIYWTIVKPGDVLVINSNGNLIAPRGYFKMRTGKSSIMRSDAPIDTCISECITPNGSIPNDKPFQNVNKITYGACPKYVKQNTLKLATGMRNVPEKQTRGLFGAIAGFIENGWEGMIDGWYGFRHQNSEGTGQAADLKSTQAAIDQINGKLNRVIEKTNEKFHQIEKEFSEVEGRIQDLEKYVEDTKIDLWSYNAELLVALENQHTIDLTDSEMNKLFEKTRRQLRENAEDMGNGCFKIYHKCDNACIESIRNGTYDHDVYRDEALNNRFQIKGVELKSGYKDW

CC(=O)N[C@H]1[C@H](OCCCCCNC(=O)CCCC[C@@H]2SC[C@@H]3NC(=O)N[C@@H]32)O[C@H](CO)[C@@H](O[C@@H]2O[C@H](CO[C@]3(C(=O)O)C[C@H](OC(C)=O)[C@@H](NC(C)=O)[C@H]([C@H](O)[C@H](O)CO)O3)[C@H](O)[C@H](O)[C@H]2O)[C@@H]1O [compound 6]
glycan microarray, fluorescence: specific for 4-O-acetylated Neu5Ac and does not depend on linkage type
